Values after ≈ are worked out from the molar mass of the structure shown.
Legend:
[1] = Displacement of [3H]glycine from AMPA receptor (unknown origin); assay type: protein-complex assay, Homo sapiens
[2] = target: T1, Glutamate receptor ionotropic AMPA (Homo sapiens, UniProt P42261+P42262+P42263+P48058); assay: Displacement of [3H]AMPA from AMPA receptor (unknown origin); assay type: protein-complex assay
[3] = target: T1, Glutamate receptor ionotropic AMPA; assay: Displacement of [3H]kainate from AMPA receptor (unknown origin); assay type: protein-complex assay
[4] = Inhibition of palmitate-induced lipid accumulation in human HepG2 cells relative to control; assay type: functional
Alpha amylase = target: T2, Alpha amylase (Homo sapiens, UniProt P0DUB6); assay: Inhibition of alpha-amylase (unknown origin)
T2 sequence (P0DUB6 whole entry): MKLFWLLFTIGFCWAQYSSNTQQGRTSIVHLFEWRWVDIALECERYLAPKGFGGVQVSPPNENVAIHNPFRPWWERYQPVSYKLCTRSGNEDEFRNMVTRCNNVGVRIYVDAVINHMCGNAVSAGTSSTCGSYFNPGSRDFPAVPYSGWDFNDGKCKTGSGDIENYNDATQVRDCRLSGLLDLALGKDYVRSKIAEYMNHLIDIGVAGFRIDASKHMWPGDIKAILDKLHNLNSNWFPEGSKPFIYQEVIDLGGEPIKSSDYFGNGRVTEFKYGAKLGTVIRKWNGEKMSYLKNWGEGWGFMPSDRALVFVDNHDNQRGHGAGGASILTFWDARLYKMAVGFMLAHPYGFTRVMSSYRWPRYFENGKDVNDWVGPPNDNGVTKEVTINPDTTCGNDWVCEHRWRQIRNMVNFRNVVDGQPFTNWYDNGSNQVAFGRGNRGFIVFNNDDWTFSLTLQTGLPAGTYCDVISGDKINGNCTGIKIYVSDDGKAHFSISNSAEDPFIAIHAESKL

[5] = target: Glutamate [NMDA] receptor; assay: Displacement of [3H]glycine from NMDA receptor (unknown origin); assay type: protein-complex assay, Homo sapiens
[6] = target: Prostaglandin G/H synthase 1 (Homo sapiens, UniProt P23219)
Homo sapiens = species on record: Homo sapiens; assay: Inhibition of human TRK relative to control; set-up: concentration or dose not given beside the values; conditions: concentration not given here
Pseudomonas aeruginosa = assay: Antibacterial activity against Pseudomonas aeruginosa; assay type: functional
Candida albicans = assay: Antifungal activity against Candida albicans; assay type: functional
Klebsiella pneumoniae = assay: Antibacterial activity against Klebsiella pneumoniae; assay type: functional
[7] = Antioxidant activity assessed as DPPH radical scavenging activity; assay type: functional; conditions: read-out: IC50
Staphylococcus aureus [8] = assay: Antibacterial activity against methicillin-resistant Staphylococcus aureus; assay type: functional
Escherichia coli [9] = assay: Antibacterial activity against Escherichia coli; assay type: functional
Staphylococcus aureus [10] = assay: Antibacterial activity against Staphylococcus aureus; assay type: functional
Escherichia coli [11] = assay: Antibacterial activity against Escherichia coli assessed as diameter zone of inhibition; assay type: functional
Pichia kudriavzevii = assay: Antifungal activity against Candida krusei; assay type: functional
Candida [12] = assay: Antifungal activity against Candida species isolate 1; assay type: functional
Candida parapsilosis = assay: Antifungal activity against Candida parapsilosis; assay type: functional; conditions: Lodderomyces parapsilosis
Nakaseomyces glabratus = assay: Antifungal activity against Candida glabrata; assay type: functional
Candida tropicalis = assay: Antifungal activity against Candida tropicalis; assay type: functional
Candida [13] = assay: Antifungal activity against Candida species isolate 3; assay type: functional
Candida [14] = assay: Antifungal activity against Candida species isolate 2; assay type: functional
[15] = target: Human immunodeficiency virus type 1 reverse transcriptase (Human immunodeficiency virus 1, UniProt Q72547); assay: Inhibition of HIV1 reverse transcriptase
[16] = target: Human immunodeficiency virus type 1 reverse transcriptase (Human immunodeficiency virus 1) (UniProt Q72547); assay: Inhibition of HIV1 reverse transcriptase at 10 uM relative to control
[17] = target: Human immunodeficiency virus type 1 reverse transcriptase (Human immunodeficiency virus 1) (UniProt Q72547); assay: Inhibition of HIV1 reverse transcriptase at 100 uM relative to control
[18] = Inhibition of ALR1 (unknown origin) relative to control; set-up: concentration or dose not given beside the values; conditions: Homo sapiens; concentration not given here
[19] = Inhibition of ALR2 (unknown origin); set-up: species or system Homo sapiens
[20] = Antioxidant activity assessed as DPPH radical scavenging activity at 100 uM; assay type: functional
[21] = Antioxidant activity assessed as DPPH radical scavenging activity at 50 uM; assay type: functional
[22] = Antioxidant activity assessed as DPPH radical scavenging activity at 10 uM; assay type: functional

Chain of Prostaglandin G/H synthase 1 (P23219 whole entry): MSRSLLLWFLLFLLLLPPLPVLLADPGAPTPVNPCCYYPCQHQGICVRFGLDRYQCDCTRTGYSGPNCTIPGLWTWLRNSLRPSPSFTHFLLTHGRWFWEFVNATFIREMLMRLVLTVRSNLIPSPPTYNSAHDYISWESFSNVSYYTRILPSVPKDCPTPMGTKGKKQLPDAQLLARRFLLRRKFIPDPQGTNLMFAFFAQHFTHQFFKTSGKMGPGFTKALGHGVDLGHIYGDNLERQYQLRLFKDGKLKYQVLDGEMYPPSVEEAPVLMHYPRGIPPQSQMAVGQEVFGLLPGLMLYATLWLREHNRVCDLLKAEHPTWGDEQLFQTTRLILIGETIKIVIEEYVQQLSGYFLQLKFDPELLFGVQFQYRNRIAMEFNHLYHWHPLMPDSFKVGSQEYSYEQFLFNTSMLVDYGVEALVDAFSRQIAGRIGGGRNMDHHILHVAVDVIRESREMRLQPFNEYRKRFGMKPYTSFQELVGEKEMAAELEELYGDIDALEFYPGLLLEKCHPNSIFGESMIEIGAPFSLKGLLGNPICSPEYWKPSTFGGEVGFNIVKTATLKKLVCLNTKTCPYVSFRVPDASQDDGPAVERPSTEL

CCC(C)N1CCc2c(Br)cc3nc(O)c(O)nc3c2C1 (stereo not drawn)
IC50 [1]: > 10 µM | IC50 [2]: 2.5 µM | IC50 [3]: 0.43 µM

Cc1cccc2c1NCCN2
inhibition (INH) [4]: 30%

COc1cccc(/C=N/Nc2nc3ccccc3[nH]c2=O)c1
IC50 (Alpha amylase): 492.68 µM

Oc1nc2cc(Cl)c(Cl)cc2n2cnnc12
IC50 [5]: 0.63 µM | IC50 [2]: 4.69 µM

Cc1nn(-c2ccccc2)c(N2CCCCC2)c1/C=N/Nc1nc2ccccc2nc1O
IC50 [6]: > 50 µM | inhibition (Homo sapiens): 74%

CSCCc1nc2ccc(N3C(=O)CSC3c3ccc(F)cc3)cc2[nH]c1=O (stereo not drawn)
MBC (Pseudomonas aeruginosa): 70.3 µM (≈ 29.2 µg/mL) | MBC (Candida albicans): 35.1 µM (≈ 14.6 µg/mL) | MBC (Klebsiella pneumoniae): 11.7 µM (≈ 4.86 µg/mL) | IC50 [7]: 156 µM | MBC (Staphylococcus aureus [8]): 93.7 µM (≈ 38.9 µg/mL) | MBC (Escherichia coli [9]): 46.8 µM (≈ 19.4 µg/mL) | MBC (Staphylococcus aureus [10]): 23.4 µM (≈ 9.72 µg/mL)

CC(C)CCN1CCc2c(Br)cc3nc(O)c(O)nc3c2C1
IC50 [1]: > 10 µM | IC50 [2]: 9.7 µM | IC50 [3]: 0.68 µM

O=C1CN(C(=O)CNc2ccccc2O)c2ccccc2N1
diameter of the inhibition zone (DIZ) (Escherichia coli [11]): 11 mm

O=c1[nH]c2cc(F)c(F)cc2nc1CBr
MIC (Candida albicans): 31.2 µg/mL (≈ 113 µM) | MIC (Pichia kudriavzevii): 125 µg/mL (≈ 454 µM) | MIC (Candida [12]): 62.5 µg/mL (≈ 227 µM) | MIC (Candida parapsilosis): 62.5 µg/mL (≈ 227 µM) | MIC (Nakaseomyces glabratus): 125 µg/mL (≈ 454 µM) | MIC (Candida tropicalis): 500 µg/mL (≈ 1820 µM) | MIC (Candida [13]): 500 µg/mL (≈ 1820 µM) | MIC (Staphylococcus aureus [10]): 125 µg/mL (≈ 454 µM) | MIC (Candida [14]): 125 µg/mL (≈ 454 µM)

Cc1cccc2c1NC(=O)CN2
inhibition (INH) [4]: 50%

Cc1ccc2c(c1)N[C@@H](C)C(=O)N2
inhibition (INH) [4]: 50%

O=c1[nH]c2ccccc2nc1N/N=C/c1cccs1
IC50 (Alpha amylase): 395.84 µM

COC(=O)c1sc(I)cc1S(=O)(=O)N1c2cc(Cl)ccc2NC(=O)C1C (stereo not drawn)
IC50 [15]: 0.075 µM

Cc1cc2[nH]c(=O)c(=O)n(CP(=O)(O)O)c2cc1C
Ki [5]: 5.28 µM | Ki [2]: 1.21 µM

O=c1[nH]c2cc(C(F)(F)F)ccc2nc1C(F)(F)F
MIC (Candida albicans): 8 µg/mL (≈ 28.4 µM) | MIC (Pichia kudriavzevii): 250 µg/mL (≈ 886 µM) | MIC (Candida [12]): 15.6 µg/mL (≈ 55.3 µM) | MIC (Candida parapsilosis): 15.6 µg/mL (≈ 55.3 µM) | MIC (Nakaseomyces glabratus): 125 µg/mL (≈ 443 µM) | MIC (Candida tropicalis): 125 µg/mL (≈ 443 µM) | MIC (Candida [13]): 125 µg/mL (≈ 443 µM) | MIC (Candida [14]): 125 µg/mL (≈ 443 µM)

Oc1nc2cc(Cl)c(Cl)cc2n2ccnc12
IC50 [5]: 1.26 µM | IC50 [2]: 7.38 µM

Cc1cccc2c1NC[C@H](C)N2
inhibition (INH) [4]: 30%

Cc1nn(-c2ccccc2)c(N(C)C)c1/C=N/Nc1nc2ccccc2nc1O
IC50 [6]: > 50 µM | inhibition (Homo sapiens): 62%

CN1CCNc2ccccc21
inhibition (INH) [4]: 30%

O=c1[nH]c2ccc(C(F)(F)F)cc2nc1C(F)(F)F
MIC (Candida albicans): 8 µg/mL (≈ 28.4 µM) | MIC (Pichia kudriavzevii): 250 µg/mL (≈ 886 µM) | MIC (Candida [12]): 125 µg/mL (≈ 443 µM) | MIC (Candida parapsilosis): 125 µg/mL (≈ 443 µM) | MIC (Nakaseomyces glabratus): 250 µg/mL (≈ 886 µM) | MIC (Candida tropicalis): 250 µg/mL (≈ 886 µM) | MIC (Candida [13]): 125 µg/mL (≈ 443 µM) | MIC (Candida [14]): 125 µg/mL (≈ 443 µM)

CCC(=O)N1CC(=O)Nc2ccccc21
IC50 [15]: 0.63 µM | inhibition [16]: 91% | inhibition [17]: 99%

O=c1[nH]c2cc(-n3ccnc3)c([N+](=O)[O-])cc2[nH]c1=O [YM-90K]
Ki [1]: 37 µM | Ki [2]: 0.084 µM | Ki [3]: 2.2 µM

Cc1nn(-c2ccccc2)c(N2CCNCC2)c1/C=N/Nc1nc2ccccc2nc1O
IC50 [6]: > 50 µM | inhibition (Homo sapiens): 20%

O=c1c(/C=C/c2ccc(O)cc2)nc2ccc(F)cc2n1-c1cnn(O)c1
inhibition [18]: 34.3% | IC50 [19]: 0.107 µM | IC50 [7]: 78.9 µM | Activity [20]: 65.3% | Activity [21]: 31.5% | Activity [22]: 18.7%

Cc1nn(-c2ccccc2)c(Cl)c1/C=N/Nc1nc2ccccc2[nH]c1=O
IC50 [6]: > 50 µM | inhibition (Homo sapiens): 34%

CC(C)COC(=O)N1c2ccccc2NC(=O)[C@H]1C
IC50 [15]: 64 µM | inhibition [16]: 37% | inhibition [17]: 64%

CC(C)c1nc2ccc(N3C(=O)CSC3c3ccc([N+](=O)[O-])cc3)cc2[nH]c1=O (stereo not drawn)
IC50 [7]: 162 µM | IC50 (Alpha amylase): 356.32 µM

Reference: ChEMBL document CHEMBL5113380, “Functionalized quinoxalinones as privileged structures with broad-ranging pharmacological activities” (Eur J Med Chem, 2022)
